Assay [1] concerns HeLa cells with lower levels of endogenous MCAK (MCAK RNAi). Kind of assay: Spindle phenotypes with MCAK RNAi. It counts as cell-based, human. Conditions: 300 nM C75 or 30 nM colchicine. An excerpt:
FIG. 8B) is a bar graph showing the proportion of spindle phenotypes in HeLa cells treated as in 8A).
Since this is unique to C75, and ch-TOG RNAi was previously shown to be suppressed (partially) by MCAK RNAi, supporting C75's role in targeting ch-TOG or a component of the pathway.

Another assay deals with HFF1 cells. Kind of assay: Percentage of mitotic cells, paclitaxel +/- C75. It counts as cell-based. As to conditions: 200 nM C75 + paclitaxel. The method, then:
FIG. 3A) is a line graph showing cytotoxicity of HeLa cells after treatment with varying concentrations of C75+/−a subthreshold dose of paclitaxel (Taxol™; 3 nM). The IC50 is shown by the dotted line. Bars show standard deviation. FIG. 3B) is a line graph showing the percentage of mitotic HeLa or HFF1 cells treated with a range of paclitaxel concentrations+/−C75 as indicated. The bars indicate standard deviation. FIG. 3C) is a series of bar graphs showing the proportion of HCT 116 cells with bipolar aligned (grey), bipolar misaligned (dark grey), multipolar/fragmented (light grey, top portion of each bar) or monopolar (black) spindles 7 hours after treatment with control (DMSO), varying concentrations of paclitaxel or C75, or both as indicated (n=691; N=3). The bars show standard deviation. The combination treatments were compared to paclitaxel and C75 on their own by calculating ratios varying from the predicted ratio, and found to synergize at 100 and 200 nM. FIG. 3D) is bar graph showing the average distance between centrosome fragments in HCT116 cells after treatments as shown. While centrosome fragments moved closer together with increased concentrations of paclitaxel, they moved further apart with increased concentrations of C75 (n=105; N=3). […]

Assay [2] has as its system HeLa, A549 and HCT116 cancer cells compared to HFF-1 non-cancer cells. Put plainly: Selective toxicity, high-throughput automated analysis. It counts as cell-based. Conditions: A549, HCT116 vs HFF-1. The method, then:
FIG. 1A) is a line graph showing changes in the percentage of viable HFF-1, HeLa, A549 and HCT 116 cells after treatment with a range of C75 concentrations for 3 population doubling times (N=3). […] There were more rounded mitotic cells after C75 treatment in comparison to the control. FIG. 1C) is a line graph showing the percentage of HeLa and HFF1 cells in mitosis after treatment with various concentrations of C75 for 8 hours. The bars indicate standard deviation. FIG. 1D) is a series of images showing cells that were fixed and co-stained for tubulin (microtubules) and DAPI (DNA). Treatment of HeLa cells with 300 nM C75 caused the mitotic spindles to be disorganized, while they were not affected in HFF1 cells. […] The scale bar for the cells is 10 μm. […] FIG. 1F) is a cartoon schematic showing the key features of a metaphase cell.
The images in FIG. 1B) show fields of view of HeLa cells treated with (dimethyl sulfoxide) DMSO or 500 nM of C75. […] Higher concentrations of C75 caused spindle phenotypes in HFF1 cells, but they were quite different in comparison to HeLa cells (FIG. 1D).

Consider `COc1ccc(S(=O)(=O)N2Cc3ccccc3-c3sc(Br)cc32)cc1` [Compound C75], for which, in assay [1], the “suppression of fragmented spindle phenotype by MCAK RNAi” value is listed as “partially suppressed”. Moreover, in the assay with HFF1 cells, the “effect on non-cancerous cells treated with paclitaxel” value is reported as “protective effect”. In addition, the “toxicity in cancer cells compared to HFF-1 non-cancer cells” value in assay [2] is “selectively cause toxicity”.

These data come from patent US20200276181A1, “THIENOISOQUINOLINES AND THEIR DERIVATIVES FOR TARGETING TUBULIN, CH-TOG, AURORA A KINASE, TPX2, CDK5RAP2 AND/OR ASPM” (VALORBEC, SEC, priority 2017, published 2020).
